Results: US20100298141A1, “SUBSTITUTED PYRIDINE N-OXIDE HERBICIDES” (E. I. DU PONT DE NEMOURS AND COMPANY, priority 2007, published 2010)

Columns and labels:
[1] = tested on: wild oat; experiment: Test C pre-/postemergence test; type: in vivo, Avena fatua
How it was run: (§1)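 Seeds were planted and treated preemergence with test chemical in a non-phytotoxic solvent mixture containing surfactant. Postemergence applications of the same formulation went onto plants 2 to 18 cm tall (1- to 4-leaf stage). A dash marks no test result.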

[2] = tested on: soybean; experiment: Test C pre-/postemergence test; type: in vivo, Glycine max
How it was run: as §1

[3] = tested on: blackgrass; experiment: Test C pre-/postemergence test; type: in vivo, Alopecurus myosuroides
How it was run: as §1

[4] = tested on: woolly cupgrass; experiment: Test C pre-/postemergence test; type: in vivo, Eriochloa villosa
How it was run: as §1

[5] = tested on: yellow nutsedge; experiment: Test C pre-/postemergence test; type: in vivo, Cyperus esculentus
How it was run: as §1

[6] = tested on: bermudagrass; experiment: Test C pre-/postemergence test; type: in vivo, Cynodon dactylon
How it was run: as §1

[7] = tested on: green foxtail; experiment: Test C pre-/postemergence test; type: in vivo, Setaria viridis
How it was run: as §1

[8] = tested on: rice; experiment: Test C flooded paddy test; type: in vivo, Oryza sativa; details: Flood
How it was run: (§2)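 Visual injury ratings against untreated controls, taken 13 to 15 days after compound was added to paddy water standing 3 cm above the soil.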

[9] = tested on: catchweed bedstraw; experiment: Test C pre-/postemergence test; type: in vivo, Galium aparine
How it was run: as §1

[10] = tested on: kochia; experiment: Test C pre-/postemergence test; type: in vivo, Kochia scoparia
How it was run: as §1

[11] = tested on: morningglory; experiment: Test A pre-/postemergence greenhouse test; type: in vivo, Ipomoea spp.; details: for Plant response rating, Morningglory: 0 to 100 scale where 0 is no effect and 100 is complete control; for Morningglory plant response rating: 0 to 100 scale
How it was run: (§3)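 Untreated controls served as the reference for visual injury ratings taken about ten days after spraying. The non-phytotoxic solvent/surfactant formulation was applied preemergence to seeded loam and sand and postemergence to plants two to ten cm high.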

[12] = tested on: downy brome; experiment: Test C pre-/postemergence test; type: in vivo, Bromus tectorum
How it was run: as §1

[13] = tested on: cocklebur; experiment: Test C pre-/postemergence test; type: in vivo, Xanthium strumarium
How it was run: as §1

[14] = tested on: redroot pigweed; experiment: Test A pre-/postemergence greenhouse test; type: in vivo, Amaranthus retroflexus; details: for Plant response rating, Pigweed: 0 to 100 scale where 0 is no effect and 100 is complete control; for Pigweed plant response rating: 0 to 100 scale
How it was run: as §3

[15] = tested on: lambsquarters; experiment: Test C pre-/postemergence test; type: in vivo, Chenopodium album
How it was run: as §1

[16] = tested on: duck salad; experiment: Test C flooded paddy test; type: in vivo, Heteranthera limosa; details: Flood
How it was run: as §2

[17] = 62 g ai/ha, Preemergence, scale 0 to 100
[18] = 125 g ai/ha, preemergence, scale 0 (no effect) to 100 (complete control)
[19] = Preemergence, 31 g ai/ha, scale 0 to 100 (0 no effect, 100 complete control)
[20] = preemergence, 250 g ai/ha, scale 0 (no effect) to 100 (complete control)
[21] = 62 g ai/ha, scale 0 to 100, 0 no effect, 100 complete control, 13 to 15 days
[22] = 250 g ai/ha, scale 0 to 100, 0 no effect, 100 complete control, 13 to 15 days
[23] = Postemergence, 500 g ai/ha, 0 is no effect, 100 is complete control
[24] = Preemergence, 125 g ai/ha, 0 no effect, 100 complete control
[25] = 31 g ai/ha, Preemergence, scale 0 to 100
[26] = 62 g ai/ha, preemergence, scale 0 (no effect) to 100 (complete control)
[27] = preemergence, 125 g ai/ha, scale 0 (no effect) to 100 (complete control)
[28] = 31 g ai/ha, scale 0 to 100 (0 no effect, 100 complete control)
[29] = 125 g ai/ha, scale 0 to 100, 0 no effect, 100 complete control, 13 to 15 days
[30] = 250 g ai/ha, scale 0 to 100 (0 no effect, 100 complete control)
[31] = Postemergence, 125 g ai/ha, 0 is no effect, 100 is complete control

CC(c1c(C(F)(F)F)nn(CC(F)(F)F)c1Cl)[S+]([O-])c1cccc[n+]1[O-] (stereo not drawn) [Compound 46]
Oat, Wild plant response rating [1, 17]: 20 | Oat, Wild plant response rating [1, 18]: 20 | Plant response rating, Oat, Wild [1, 19]: 0 | Oat, Wild plant response rating [1, 20]: 50 | Soybean plant response rating [2, 17]: 0 | Soybean plant response rating [2, 18]: 0 | Plant response rating, Soybean [2, 19]: 0 | Soybean plant response rating [2, 20]: 25 | Blackgrass plant response rating [3, 17]: 100 | Blackgrass plant response rating [3, 18]: 100 | Plant response rating, Blackgrass [3, 19]: 70 | Blackgrass plant response rating [3, 20]: 100 | Cupgrass, Woolly plant response rating [4, 17]: 80 | Cupgrass, Woolly plant response rating [4, 18]: 95 | Plant response rating, Cupgrass, Woolly [4, 19]: 80 | Cupgrass, Woolly plant response rating [4, 20]: 95 | Nutsedge, Yellow plant response rating [5, 17]: 60 | Nutsedge, Yellow plant response rating [5, 18]: 65 | Plant response rating, Nutsedge, Yellow [5, 19]: 60 | Nutsedge, Yellow plant response rating [5, 20]: 100 | Bermudagrass plant response rating ([6]; 62 g ai/ha, Preemergence, scale 0 to 100 (0 no effect, 100 complete control)): 100 | Bermudagrass plant response rating [6, 18]: 100 | Plant response rating, Bermudagrass [6, 19]: 100 | Bermudagrass plant response rating [6, 20]: 100 | Foxtail, Green plant response rating [7, 17]: 98 | Foxtail, Green plant response rating [7, 18]: 100 | Plant response rating, Foxtail, Green [7, 19]: 95 | Foxtail, Green plant response rating [7, 20]: 100 | Plant response rating, Rice [8, 21]: 10 | Plant response rating, Rice [8, 22]: 55 | Galium plant response rating [9, 17]: 0 | Galium plant response rating [9, 18]: 85 | Plant response rating, Galium [9, 19]: 0 | Galium plant response rating [9, 20]: 90 | Kochia plant response rating [10, 17]: 50 | Kochia plant response rating [10, 18]: 100 | Plant response rating, Kochia [10, 19]: 50 | Kochia plant response rating [10, 20]: 100 | Plant response rating, Morningglory ([11]; Postemergence, 125 g ai/ha): 0 | Morningglory plant response rating [11, 23]: 60 | Morningglory plant response rating [11, 24]: 30 | Plant response rating, Morningglory ([11]; Preemergence, 500 g ai/ha): 90 | Bromegrass, Downy plant response rating [12, 17]: 0 | Bromegrass, Downy plant response rating [12, 18]: 10 | Plant response rating, Bromegrass, Downy [12, 19]: 0 | Bromegrass, Downy plant response rating [12, 20]: 15 | Cocklebur plant response rating [13, 17]: 0 | Cocklebur plant response rating [13, 18]: 0 | Plant response rating, Cocklebur [13, 19]: 0 | Cocklebur plant response rating [13, 20]: 10 | Plant response rating, Pigweed ([14]; Postemergence, 125 g ai/ha): 40 | Pigweed plant response rating [14, 23]: 50 | Pigweed plant response rating [14, 24]: 10 | Plant response rating, Pigweed ([14]; Preemergence, 500 g ai/ha): 100 | Lambsquarters plant response rating [15, 17]: 90 | Lambsquarters plant response rating [15, 18]: 100 | Plant response rating, Lambsquarters [15, 19]: 0 | Lambsquarters plant response rating [15, 20]: 100 | Plant response rating, Ducksalad [16, 21]: 10 | Plant response rating, Ducksalad [16, 22]: 20

Cn1nc(C(F)(F)F)c(CS(=O)(=O)c2cccc[n+]2[O-])c1Cl [Compound 9]
Oat, Wild plant response rating [1, 25]: 0 | Oat, Wild plant response rating [1, 26]: 0 | Plant response rating (0 to 100), Oat, Wild ([1]; Preemergence, 250 g ai/ha): 55 | Oat, Wild plant response rating [1, 27]: 40 | Soybean plant response rating [2, 25]: 10 | Plant response rating (0 to 100), Soybean ([2]; Preemergence, 250 g ai/ha): 45 | Soybean plant response rating [2, 27]: 40 | Blackgrass plant response rating [3, 25]: 0 | Blackgrass plant response rating [3, 26]: 50 | Plant response rating (0 to 100), Blackgrass ([3]; Preemergence, 250 g ai/ha): 95 | Blackgrass plant response rating [3, 27]: 50 | Cupgrass, Woolly plant response rating [4, 25]: 0 | Plant response rating (0 to 100), Cupgrass, Woolly ([4]; Preemergence, 250 g ai/ha): 100 | Cupgrass, Woolly plant response rating [4, 27]: 100 | Nutsedge, Yellow plant response rating [5, 25]: 40 | Plant response rating (0 to 100), Nutsedge, Yellow ([5]; Preemergence, 250 g ai/ha): 100 | Nutsedge, Yellow plant response rating [5, 27]: 100 | Bermudagrass plant response rating [6, 25]: 98 | Plant response rating (0 to 100), Bermudagrass ([6]; Preemergence, 250 g ai/ha): 100 | Bermudagrass plant response rating [6, 27]: 100 | Foxtail, Green plant response rating [7, 25]: 85 | Foxtail, Green plant response rating [7, 26]: 100 | Plant response rating (0 to 100), Foxtail, Green ([7]; Preemergence, 250 g ai/ha): 100 | Foxtail, Green plant response rating [7, 27]: 100 | Plant response rating, Rice [8, 28]: 10 | Plant response rating, Rice [8, 21]: 40 | Plant response rating, Rice [8, 29]: 70 | Plant response rating, Rice [8, 30]: 70 | Galium plant response rating [9, 25]: 0 | Galium plant response rating [9, 26]: 100 | Plant response rating (0 to 100), Galium ([9]; Preemergence, 250 g ai/ha): 100 | Galium plant response rating [9, 27]: 100 | Kochia plant response rating [10, 25]: 0 | Plant response rating (0 to 100), Kochia ([10]; Preemergence, 250 g ai/ha): 100 | Kochia plant response rating [10, 27]: 100 | Morningglory plant response rating [11, 31]: 20 | Morningglory plant response rating [11, 23]: 70 | Morningglory plant response rating [11, 24]: 40 | Plant response rating, Morningglory ([11]; Preemergence, 500 g ai/ha): 70 | Bromegrass, Downy plant response rating [12, 25]: 0 | Bromegrass, Downy plant response rating [12, 26]: 0 | Plant response rating (0 to 100), Bromegrass, Downy ([12]; Preemergence, 250 g ai/ha): 20 | Bromegrass, Downy plant response rating [12, 27]: 20 | Cocklebur plant response rating [13, 25]: 0 | Plant response rating (0 to 100), Cocklebur ([13]; Preemergence, 250 g ai/ha): 0 | Cocklebur plant response rating [13, 27]: 0 | Pigweed plant response rating [14, 31]: 10 | Pigweed plant response rating [14, 23]: 60 | Pigweed plant response rating [14, 24]: 100 | Plant response rating, Pigweed ([14]; Preemergence, 500 g ai/ha): 100 | Lambsquarters plant response rating [15, 25]: 0 | Plant response rating (0 to 100), Lambsquarters ([15]; Preemergence, 250 g ai/ha): 100 | Lambsquarters plant response rating [15, 27]: 80 | Plant response rating, Ducksalad [16, 28]: 0 | Plant response rating, Ducksalad [16, 21]: 65 | Plant response rating, Ducksalad [16, 29]: 85 | Plant response rating, Ducksalad [16, 30]: 90
